Article PMC10135567, “New Indole-3-Propionic Acid and 5-Methoxy-Indole Carboxylic Acid Derived Hydrazone Hybrids as Multifunctional Neuroprotectors” (Antioxidants, 2023)
Entries after “also recorded” stand apart in the source; their conditions may differ.

Key:
[1] = Stability by UV-vis measurements at different pH; assay type: physicochemical; conditions: 50 µM, pH 2, 4.5, 7.4 and 8.4, after 1, 2, 3 and 24 h
Method: The stability of the compounds was also considered a potential issue. Therefore, selected compounds (3a, 3d, 5d, and 5e at a concentration of 50 µM) were studied by UV-vis measurements under different pH conditions, including pH 2, 4.5, 7.4, and 8.4, to represent different physiological (gastric, intestinal, etc.) conditions.

[2] = tested on: isolated rat-brain synaptosomes; experiment: Level of reduced glutathione (GSH) in isolated synaptosomes, substances administered alone; conditions: 100 µM
Method: (§1) Preparation of the synaptosomes was carried out by multiple centrifugations using the Percoll gradient. Homogenization of the brains was performed in 10 volumes of cold buffer 1, which contained 5 mM HEPES and 0.32 M sucrose (pH = 7.4), followed by centrifugation at different speeds. For preparation of the gradient, the synaptosomes were isolated by Percoll reagent. Synaptosomes were resuspended and incubated in buffer 2, which contained 290 mM NaCl, 0.95 mM MgCl2x6H2O, 10 mM KCl, 2.4 mM CaCl2xH2O, 2.1 mM NaH2PO4, 44 mM HEPES, and 13 mM D-glucose. Incubations were performed in a 5% CO2 + 95% O2 atmosphere. The method of Lowry et al., using bovine serum albumin as a standard content, was applied for determination of synaptosomal protein [51].
After the treatment with the tested compounds, the glutathione levels of the synaptosomes were determined with an Ellman reagent (DTNB). The GSH levels were evaluated based on the synaptosomal sediment, precipitated with 5% TCA, and centrifuged for 10 min at 4000× g. GSH levels in the supernatant were measured spectrophotometrically at 412 nm by a Spectro UV-vis split spectrophotometer (LaboMed. Inc., Los Angelis, California, USA). […]

[3] = tested on: isolated rat-brain synaptosomes; experiment: 6-OHDA-induced neurotoxicity in isolated rat synaptosomes, GSH level; assay type: cell-based; conditions: 10 µM pre-incubation 30 min, then 150 µM 6-OHDA 1 h
Method: This neurotoxicity model was based on the metabolism and auto-oxidation of 6-hydroxy dopamine responsible for the reactive oxygen species and quinones generation, ultimately leading to neurotoxicity and neurodegeneration. The experiment was performed by pre-incubation of the synaptosomes with 10 µM of the compounds for 30 min, followed by the addition of 150 µM 6-hydroxy dopamine for induction of neurotoxicity. After 1 h, they were centrifuged twice for 1 min at 15,000 × g. After the second wash, the precipitates were resolved with buffer B and glucose.

[4] = tested on: zonula occludens-1 (ZO-1), tight junctions between bEnd3 cells; experiment: Immunofluorescence of ZO-1 (tight junctions) in bEnd3 cells; assay type: cell-based, mouse; conditions: 90 min
Method: Immunofluorescence of zonula occludens-1 (ZO-1) was performed to determine the in vitro effect of the compounds on tight junctions (TJs) between bEnd3 cells. The experiment was conducted simultaneously with the permeability assay. Briefly, cells were seeded on cover slides in 24-well plates at a concentration of 3.5 × 10^4 cells/well and incubated for 3–4 d at 37 °C and 5% CO2 in a humidified atmosphere, until they reached 100% confluence. The cells were then treated with 10 and 50 µM concentrations of the compounds for 90 min. After the allotted treatment time, the cells were fixed with ice-cold acetone at −20 °C for 10 min; blocked with 1% bovine serum albumin (BSA, cat. no. 9048-46-8, Acros Organics, Thermo Fischer Scientific, Waltham, MA, USA) in PBS, containing 0.1% Tween® 20 (cat. no. P1379, Sigma-Aldrich Co. LLC, St. Louis, MO, USA); and labeled with anti-ZO-1 (rabbit polyclonal antibody, 1:500, cat. no. ab96587, Abcam, Cambridge, UK) at 4 °C overnight. The slides were then incubated with a secondary donkey anti-rabbit Alexa Fluor™ 555 antibody (1:1000, cat. no. 4413S, Molecular Probes, Thermo Fischer Scientific, Waltham, MA, USA) for 1 h at room temperature (RT) in the dark. […] Fluorescence microscopy was performed on a spinning disk confocal microscope system (Andor Dragonfly 505, Oxford Instruments, Abingdon, UK) with 60 × oil NA 1.4 objective, with em./ex. = 561/617 nm for ZO-1 and 405/445 nm for DAPI. The obtained data were analyzed with Fiji and compiled via the FigureJ plugin [46].
To further explore the neuroprotective effect of the compounds, we tested their ability to influence the BBB and its permeability, utilizing a static BBB model with brain microvascular endothelial cell line bEnd3 [36], as it would be essential for the compounds to pass the BBB and protect the neuronal cells. […] Here, we determined any changes in the permeability of the BBB by imitating an endothelial barrier via a static BBB model of bEnd3 cells (Figure 11a,c,e). […]

[5] = tested on: isolated rat-brain synaptosomes; experiment: Synaptosomal viability (MTT), substances administered alone; conditions: 100 µM
Method: as §1
Synaptosomal viability was monitored based on a (3-(4,5)-dimethylthiazol-2-yl)-2,5-diphenyl tetrazolium bromide) assay. After incubation with the compounds, synaptosomes were treated with 0.5 mg/mL solution of (3-(4,5)-dimethylthiazol-2-yl)-2,5-diphenyl tetrazolium bromide) for 10 min at […]. Then, the synaptosomes were centrifuged twice at 15,000× g for 1 min. The resulting formazan crystals were dissolved in DMSO (dimethyl sulfoxide), and the extinction was determined by spectrophotometric measurements at 580–660 nm. […]

In the case of `COc1cc(C=NNC(=O)CCc2c[nH]c3ccccc23)ccc1O` [Compound 3d, N′-(4-Hydroxy-3-methoxybenzylidene)-3-(1H-indol-3-yl)propanehydrazide], the “stability (UV-vis spectra over time)” value [1] is reported as “stable over time”.

With `COc1cc(C=NNC(=O)CCc2c[nH]c3ccccc23)cc(OC)c1O` [Compound 3f, N′-(4-Hydroxy-3,5-dimethoxybenzylidene)-3-(1H-indol-3-yl)propanehydrazide] the “reduction of GSH level vs. non-treated synaptosomes” value [2] was 40%.

For `COc1ccc2[nH]c(C(=O)NN=Cc3cccc(O)c3O)cc2c1` [Compound 5a, N′-(2,3-Dihydroxybenzylidene)-5-methoxy-1H-indole-2-carbohydrazide], the “GSH level preserved, as compared to 6-OHDA” value [3] was 40% and the “effect on tight junctions (ZO-1 distribution)” value (“effect on tight junctions” for short) ([4]; 10 µM) was “without affecting the TJs”.

With `COc1ccc2[nH]c(C(=O)NN=Cc3ccc(O)c(O)c3)cc2c1` [Compound 5b, N′-(3,4-Dihydroxybenzylidene)-5-methoxy-1H-indole-2-carbohydrazide] the “effect on tight junctions” value ([4]; 10 µM) was “without affecting the TJs”.

With `COc1ccc2[nH]c(C(=O)NN=Cc3ccc(O)c(OC)c3)cc2c1` [Compound 5d, N′-(4-Hydroxy-3-methoxybenzylidene)-5-methoxy-1H-indole-2-carbohydrazide] the “GSH level preserved, as compared to 6-OHDA” value [3] was 40%.

For `COc1ccc(C=NNC(=O)c2cc3cc(OC)ccc3[nH]2)c(O)c1` [Compound 5e, N′-(2-Hydroxy-4-methoxybenzylidene)-5-methoxy-1H-indole-2-carbohydrazide], the “effect on tight junctions” value ([4]; 10 and 50 µM) was “appears to disrupt TJs” and the “stability (UV-vis spectra over time)” value [1] was “stable over time; also recorded: very good stability”.

In the case of `COc1ccc2[nH]cc(CCNC(C)=O)c2c1` [Melatonin], the “reduction of synaptosomal viability (SV) vs. non-treated synaptosomes” value [5] is reported as 20%, the “reduction of GSH level vs. non-treated synaptosomes” value [2] is reported as “did not decrease” and the “GSH level preserved, as compared to 6-OHDA” value [3] is reported as 90%.
